Experimental data published in PMC3443097, “Evolution of Bombesin Conjugates for Targeted PET Imaging of Tumors” (PLoS ONE, 2012).
Square brackets hold non-standard residues; d marks the D form. Peptide text beside a SMILES is read from it. * marks the point of attachment. CPTA = 4-(1,4,8,11-tetraazacyclotetradec-1-yl)-methyl benzoic acid chelator, O=C(c1ccc(CN2CCCNCCNCCCNCC2)cc1)*; DOTA = O=C(O)CN1CCN(CC(=O)O)CCN(CC(=O)*)CCN(CC(=O)O)CC1; Nle = CCCC[C@H](N)C(=O)O; GABA = NCCCC(=O)O; βAla = NCCC(=O)O

Columns and labels:
[1] = molecular target: T1, mouse GRP receptor (Mus musculus, UniProt P21729); experiment: Competitive binding vs [^125I-Tyr^4] BN, autoradiography of mouse pancreas tissue sections; conditions: displacement of [^125I-Tyr^4] BN, ± SD, number of independent studies in brackets
T1 construct: mouse pancreas tissue (expressing mouse GRP receptor); from tissue; host or cells: mouse pancreas tissue sections
Experimental: (§1) Using [^125I-Tyr^4] BN as a GRP receptor preferring ligand, the IC50 values of the ^natCu/^natIn-labeled peptides were measured by in vitro autoradiography of sections of human prostate cancer tissue overexpressing GRP receptors or mouse pancreas tissue expressing mouse GRP receptors. The prostate cancer tissues originated from samples investigated previously or collected prospectively at the Institute of Pathology of the University of Berne in accordance with international ethical guidelines, including informed written consent and approval by the institutional review board. The binding affinity profile of [Cu^II]-BZH7 for three bombesin receptor subtypes was determined by using [^125I-D-Tyr^6, βAla^11, Phe^13, Nle^14] BN(6–14) as an universal radioligand. The procedures were described in detail previously.
(§2) Competitive binding assays were performed with human GRP receptor-positive cancerous tissue and mouse pancreas tissue (expressing mouse GRP receptor) using [^125I-Tyr^4]bombesin as radioligand. Table 2 summarizes the binding affinities of the metallopeptides to GRP receptors of mouse and human origin.

[2] = molecular target: T2, human GRP receptor (Homo sapiens, UniProt P30550); experiment: Competitive binding vs [^125I-Tyr^4] BN, autoradiography of human prostate cancer tissue sections; conditions: displacement of [^125I-Tyr^4] BN, ± SD, number of independent studies in brackets
T2 construct: in vitro autoradiography of sections of human prostate cancer tissue overexpressing GRP receptors; from tissue; host or cells: human prostate cancer tissue sections (patient samples, Institute of Pathology, University of Berne)
Experimental: as §1, §2

[3] = molecular target: T3, NMB-R (Homo sapiens, UniProt P28336); experiment: BN receptor subtype profile with universal radioligand [^125I-D-Tyr^6, βAla^11, Phe^13, Nle^14] BN(6–14), human cancerous tissues; conditions: human cancerous tissue, read-out: binding affinity to NMB-R
T3 construct: from tissue
Experimental: as §1
(§3) The most promising peptide, Cu-BZH7, was also studied with respect to BN receptor subtype profiles using human cancerous tissues shown to express predominantly a single bombesin receptor subtype.

[4] = molecular target: T4, GRP-R (Homo sapiens, UniProt P30550); experiment: as above; conditions: human cancerous tissue, read-out: binding affinity to GRP-R
T4 construct: from tissue
Experimental: as §1, §3

[5] = molecular target: T5, BNRS-3 (Homo sapiens, UniProt P32247); experiment: as above; conditions: human cancerous tissue, read-out: binding affinity to BNRS-3
T5 construct: from tissue
T5 sequence (P32247 1-399): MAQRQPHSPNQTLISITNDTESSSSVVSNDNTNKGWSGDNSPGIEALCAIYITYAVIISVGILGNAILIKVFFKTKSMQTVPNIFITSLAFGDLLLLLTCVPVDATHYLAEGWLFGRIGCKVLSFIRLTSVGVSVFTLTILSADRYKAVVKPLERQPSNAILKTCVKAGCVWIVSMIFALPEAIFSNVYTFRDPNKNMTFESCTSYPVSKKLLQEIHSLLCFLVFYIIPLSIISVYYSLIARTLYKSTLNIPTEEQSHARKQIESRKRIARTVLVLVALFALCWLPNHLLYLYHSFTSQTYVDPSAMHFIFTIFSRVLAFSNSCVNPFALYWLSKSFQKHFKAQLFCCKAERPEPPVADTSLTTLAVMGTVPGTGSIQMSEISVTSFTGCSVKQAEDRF
Experimental: as §1, §3

[6] = system: PC-3 cells; experiment: Composition of radioactivity externalized from PC-3 cells (metabolites); assay type: cell-based, human
Experimental: To identify the composition of the externalized peptides, [^111In]-BZH4 (^111In-DOTA-GABA-D-Tyr-Gln-Trp-Ala-Val-βAla-His-Leu-Nle-NH2) was used as a surrogate peptide with high specific activity, required for metabolic studies. Upon 2 h of internalization and acid wash, the externalized radioactivity after 2 h incubation already consisted of approximately 84% metabolites (^111In-DOTA: 14%; ^111In-DOTA-GABA-D-Tyr-Gln: main peak, 64%; ^111In-DOTA-GABA-D-Tyr-Gln-Trp-Ala-Val-βAla: 6%) and 16% intact peptide.

[7] = system: NMB-R; conditions: read-out: affinity to NMB-R; cited from earlier work
[8] = system: BNRS-3; conditions: read-out: affinity to BNRS-3; cited from earlier work
[9] = system: GRP-R; conditions: read-out: affinity to GRP-R; cited from earlier work
[10] = 2 h internalization, acid wash, 2 h incubation

T2 sequence (P30550 whole entry): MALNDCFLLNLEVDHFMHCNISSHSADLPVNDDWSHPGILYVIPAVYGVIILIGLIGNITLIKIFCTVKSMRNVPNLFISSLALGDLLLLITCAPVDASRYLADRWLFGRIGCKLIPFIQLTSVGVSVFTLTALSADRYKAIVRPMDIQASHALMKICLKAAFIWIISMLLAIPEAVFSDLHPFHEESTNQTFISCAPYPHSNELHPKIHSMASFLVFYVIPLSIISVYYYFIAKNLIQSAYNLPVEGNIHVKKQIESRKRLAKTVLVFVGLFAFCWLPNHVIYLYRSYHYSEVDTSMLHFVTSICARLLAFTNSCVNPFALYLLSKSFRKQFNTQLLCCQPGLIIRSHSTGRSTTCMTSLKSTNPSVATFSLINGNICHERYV
T1 sequence (P21729 whole entry): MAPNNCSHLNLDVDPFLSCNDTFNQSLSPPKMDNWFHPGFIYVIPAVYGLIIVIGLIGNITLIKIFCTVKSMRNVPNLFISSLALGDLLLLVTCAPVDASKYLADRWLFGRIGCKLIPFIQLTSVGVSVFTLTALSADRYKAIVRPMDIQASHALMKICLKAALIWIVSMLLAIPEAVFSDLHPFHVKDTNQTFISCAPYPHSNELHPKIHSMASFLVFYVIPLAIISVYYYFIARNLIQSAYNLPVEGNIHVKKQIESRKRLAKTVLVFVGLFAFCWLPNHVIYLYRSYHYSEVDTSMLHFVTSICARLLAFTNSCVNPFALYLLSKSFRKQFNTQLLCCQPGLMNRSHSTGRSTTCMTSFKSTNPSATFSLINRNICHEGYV
T4 sequence (P30550 whole entry): as the sequence (P30550 whole entry) above
T3 sequence (P28336 whole entry): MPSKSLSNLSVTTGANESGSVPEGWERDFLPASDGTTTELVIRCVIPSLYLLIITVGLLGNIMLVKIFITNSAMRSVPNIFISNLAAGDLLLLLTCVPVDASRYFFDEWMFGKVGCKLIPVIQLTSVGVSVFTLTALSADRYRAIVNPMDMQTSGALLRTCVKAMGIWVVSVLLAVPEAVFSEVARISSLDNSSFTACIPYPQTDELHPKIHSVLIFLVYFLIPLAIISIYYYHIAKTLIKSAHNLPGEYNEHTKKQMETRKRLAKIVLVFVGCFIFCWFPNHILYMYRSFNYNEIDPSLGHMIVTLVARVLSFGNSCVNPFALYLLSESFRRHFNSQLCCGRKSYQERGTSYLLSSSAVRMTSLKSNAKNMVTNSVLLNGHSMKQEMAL

In the case of CCCC[C@H](NC(=O)[C@H](CC(C)C)NC(=O)[C@H](Cc1c[nH]cn1)NC(=O)CCNC(=O)[C@@H](NC(=O)[C@H](C)NC(=O)[C@H](Cc1c[nH]c2ccccc12)NC(=O)[C@H](CCC(N)=O)NC(=O)[C@@H](Cc1ccc(O)cc1)NC(=O)CCCNC(=O)CN1CCN(CC(=O)O)CCN(CC(=O)O)CCN(CC(=O)O)CC1)C(C)C)C(N)=O [[Cu^II]-BZH4, Cu^II-DOTA-GABA-[D-Tyr^6, βAla^11, Nle^14] BN(6–14)] ({DOTA-GABA}-[dY]QWAV[βAla]HL[Nle]-NH2), the IC50 [1] is reported as 1.1 ± 0.3 nM and the IC50 [2] is reported as 26.3 ± 3.5 nM.
Work on CSCC[C@H](NC(=O)[C@H](CC(C)C)NC(=O)[C@H](Cc1c[nH]cn1)NC(=O)CCNC(=O)[C@@H](NC(=O)[C@H](C)NC(=O)[C@H](Cc1c[nH]c2ccccc12)NC(=O)[C@H](CCC(N)=O)NC(=O)c1ccc(CN2CCCNCCNCCCNCC2)cc1)C(C)C)C(N)=O [[Cu^II]-BZH7, Cu^II-CPTA-[βAla^11] BN(7–14)] yielded an IC50 [3] of 0.27 ± 0.16 nM, an IC50 [4] of 0.3 ± 0.07 nM and an IC50 [5] of 1.4 ± 0.6 nM.
With CCCC[C@H](NC(=O)[C@H](CC(C)C)NC(=O)[C@H](Cc1c[nH]cn1)NC(=O)CCNC(=O)[C@@H](NC(=O)[C@H](C)NC(=O)[C@H](Cc1c[nH]c2ccccc12)NC(=O)[C@H](CCC(N)=O)NC(=O)[C@@H](Cc1ccc(O)cc1)NC(=O)CCCNC(=O)CN1CCN(CC(=O)O)CCN(CC(=O)O)CCN(CC(=O)O)CC1)C(C)C)C(N)=O [[^111In]-BZH4, ^111In-DOTA-GABA-D-Tyr-Gln-Trp-Ala-Val-βAla-His-Leu-Nle-NH2, metal not drawn] ({DOTA-GABA}-[dY]QWAV[βAla]HL[Nle]-NH2) the “externalized radioactivity: ^111In-DOTA” value [6] was 14%, the “externalized radioactivity: metabolites (total)” value [6] was “approximately 84%” and the “externalized radioactivity: ^111In-DOTA-GABA-D-Tyr-Gln (main peak)” value [6, 10] was 64%. The “externalized radioactivity: ^111In-DOTA-GABA-D-Tyr-Gln-Trp-Ala-Val-βAla” value [6, 10] was 6%.
For “Cu^II-CPTA -[D-Tyr^6, βAla^11, Nle^14] BN(6–14) [[Cu^II]-BZH5]”, the IC50 [1] was 0.6 ± 0.2 nM and the IC50 [2] was 3.2 ± 0.5 nM.
In the case of “Cu^II-CPTA-[D-Tyr^6, βAla^11] BN(6–14) ({CPTA}-[dY]QWAV[βAla]HLM-NH2; also: Cu(II) complex of CPTA) [[Cu^II]-BZH6]”, the IC50 [1] is reported as 0.8 ± 0.2 nM and the IC50 [2] is reported as 1 ± 0.2 nM.
Work on “Cu^II-CPTA-[Gly^6, βAla^11] BN(6–14) [[Cu^II]-BZH8]” yielded an IC50 [1] of 0.8 ± 0.2 nM and an IC50 [2] of 1.8 ± 0.6 nM.
In the case of “DOTA-PEG4-BN(7–14) [[^natGa/^natLu]-DOTA-PESIN]”, the IC50 [7] is given as 12.5 nM, the IC50 [8] is given as > 1000 nM and the IC50 [9] is given as 10 nM.
With “In^III-DOTA-GABA-[D-Tyr^6, βAla^11, Nle^14] BN(6–14) [[In^III]-BZH4]” the IC50 [1] was 0.8 ± 0.4 nM and the IC50 [2] was 41.5 ± 2.5 nM.
In the case of [(N4-Bzdig)^0] BN (7–14), the IC50 [7] is listed as 0.65 nM, the IC50 [8] is listed as 37 nM and the IC50 [9] is listed as 0.9 nM.
